Paper PMC8235661, “Photoelectric Dye, NK-5962, as a Potential Drug for Preventing Retinal Neurons from Apoptosis: Pharmacokinetic Studies Based on Review of the Evidence” (Life, 2021)
Where “and” joins values, the source holds several entries; their conditions need not be identical. Equal entries are not always repeated. Where two headings read alike, the source gives them in different places.

Key:
[1] = Acute systemic toxicity test; settings: in vivo
[2] = system: chick retinal pigment epithelial cells; design: method as in PMID 18414992; settings: 6.6 × 10^−5, 6.6 × 10^−6 and 6.6 × 10^−7 M, 4 h, dark or light 320 lux; cited from earlier work
bacterial = experiment: Bacterial reverse mutation test
[3] = Unbound fraction by equilibrium dialysis, medium containing 10% fetal bovine serum; assay type: in vitro ADME; settings: 1 μM, equilibrium dialysis 37 °C 4 h
Method: An equilibrium dialysis apparatus, Rapid Equilibrium Dialysis (RED) Device Single-Use Plate with Inserts, 8K MWCO (ThermoFisher Scientific, Waltham, MA, USA), was used to determine the unbound fraction for each compound in human plasma, rat plasma, and medium containing 10% fetal bovine serum (FBS). Plasma or medium was mixed with the test compound (1 μM) and 200 μL aliquots were loaded into the apparatus and dialyzed versus 350 μL of 100 mM phosphate buffer (pH 7.4) at 37 °C for 4 h by rotation at 1000 rpm. The unbound fraction was calculated as the ratio of receiver side (buffer) to donor side (plasma) concentrations.

[4] = system: human chromosomal aberration; experiment: Human chromosomal aberration test; assay type: cell-based
Skin sensitization test = settings: in vivo
[5] = Solubility assay in JP 1st and 2nd fluid; assay type: physicochemical
Method: The Japanese Pharmacopeia (JP) 1st fluid (pH 1.2) and JP 2nd fluid (pH 6.8) for dissolution testing were used for solubility measurements. The solution of a test compound was prepared by diluting 10 mM NK-5962 in 2 μL DMSO stock solution with 165 μL of JP 1st or 2nd fluid and then mixed at 37 °C for 4 h by rotation at 1000 rpm. After loading the mixed solution into 96-well MultiScreen Filter Plates (product number MSHVN4510, 0.45 μm hydrophilic PVDF membrane; Millipore, Bedford, MA, USA), filtration was performed by centrifugation. The filtrates were mixed with acetonitrile and analyzed by high-performance liquid chromatography-UV detection (HPLC-UV, 254 nm) or by liquid chromatography and tandem mass spectrometry (LC-MS/MS). Solubility was calculated by comparing the peak area of the filtrate mixture with that of a 100 μM standard solution.

[6] = In vivo pharmacokinetics, oral administration; design: species or system rat; settings: for Kp at 8 h: eye ball / plasma, read-out: Eye Ball/Plasma Ratio(Kp); for bioavailability: oral, read-out: absolute bioavailability
Method: Male Sprague Dawley (SD) and Wistar rats (5-week old) were obtained from Charles River Laboratories Japan (Yokohama, Japan) and Japan SLC, Inc. (Hamamatsu, Japan), respectively. All animals were maintained in air-conditioned quarters with room temperatures of 20 ± 2 °C, relative humidity of 50 ± 10%, and an alternating 12 h light/dark cycle. The rats were fed a certified diet MF (Oriental Yeast Co., Tokyo, Japan) and water ad libitum. The studies were conducted in accordance with the guidelines provided by the Animal Care and Use Committee of Osaka University (Identifier DouyakuR01-3-1).
A test compound (NK-5962) solution in 50% DMSO/water was injected intravenously (i.v.) to male SD rats. A test compound suspension in 0.5% methyl cellulose was administered orally (p.o.) to male Wistar rats. The dosage of the test compound was 1 mg/2 mL/kg (i.v.) and 10 or 100 mg/10 mL/kg (p.o.). Blood samples were collected from the jugular vein at 5 and 15 min and 1 h (i.v.) by using pre-heparinized syringe after the intravenous administration or from the caudal vein at 15 and 30 min, 1, 2 and 4 h (p.o.) by using heparinized capillary tube after the oral administration. At 30 min and 2 h (i.v.) or 8 h (p.o.), blood samples were collected from the abdominal aorta under isoflurane anesthesia and the eye balls and the whole brain were excised immediately.
Plasma was prepared by centrifugation of the blood samples. Plasma and tissues were stored at −80 °C. The tissues were homogenized with a four-fold volume of phosphate-buffered saline to obtain a 20% tissue homogenate. Plasma and 20% tissue homogenates were precipitated with 4–20 volumes of acetonitrile/IS and centrifuged at 15,000× g at 4 °C for 10 min. The supernatants were analyzed by liquid chromatography and tandem mass spectrometry (LC-MS/MS). Standard non-compartmental analysis was performed to determine the pharmacokinetic parameters: elimination half-life (t1/2) and area under the concentration time curve from time zero to infinity (AUC∞). The absolute bioavailability (BA) of the oral dose was calculated as AUC∞ (p.o.)/AUC∞ (i.v.).
Liquid chromatography and tandem mass spectrometry instrument (LC-MS8060) equipped with Shimadzu Nexera series LC system (Shimadzu, Kyoto, Japan) were used. All compounds were analyzed in multi-reaction monitoring mode under electron spray ionization conditions. The analytical column used was a […] C18 MGIII (3 μm × 2.0 mmID × 35 mm; OSAKA SODA, Osaka, Japan) at 50 °C. The gradient mobile phase consisted of 0.1% formic acid in water (mobile phase A) and 0.1% formic acid in acetonitrile (mobile phase B) at a total flow rate of 1 mL/minute. The initial mobile phase composition was 10% B, which was held constant for 0.2 min, increased in a linear fashion to 90% B over 1 min, then held constant for 0.8 min, and then finally brought back to the initial condition of 10% B over 0.01 min and re-equilibrated for 1 min. The transitions (precursor ion > product ion) of NK-5962 and IS (methyl testosterone) are 433.2 > 279.2 and 303.1 > 109.1 (positive), respectively.

SMILES: CCCCN(CCCC)c1ccc(C=Cc2sc3ccccc3[n+]2CC(=O)O)cc1.[Br-] [NK-5962, 2-[2-[4-(dibutylamino)phenyl]ethenyl]-3-carboxymethylbenzothiazolium bromide]
- acute systemic toxicity test [1]: not toxic
- percent cytotoxicity value [2]: negative in all groups
- genetic toxicity, bacterial reverse mutation test (bacterial): not toxic
- Protein-Binding (Non-Binding Ratio) 10% Fetal Bovine Serum [3]: 0.34
- genetic toxicity, human chromosomal aberration test [4]: not toxic
- toxicity in the skin sensitization test (Skin sensitization test): not toxic
- solubility at 4 h ([5]; JP 1st fluid pH 1.2, 37 °C, read-out: Solubility JP1 (pH 1.2)): 79 µM
- Solubility JP2 (pH 6.8) ([5]; JP 2nd fluid pH 6.8, 37 °C, 4 h): low
- solubility at 4 h ([5]; JP 2nd fluid pH 6.8, 37 °C, read-out: Solubility JP2 (pH 6.8)): 0.2 µM
- maximum plasma concentration after the oral administration ([6]; excluding the 8 h values suspected of contamination): 17 nM
- maximum eye ball concentration expected after oral administration ([6]; from maximum plasma concentration and eye ball/plasma ratio 0.072): 1.3 nM
- Kp at 8 h ([6]; male, Wistar, oral 10 mg/kg, single rat): < 0.059
- Kp at 8 h ([6]; male, Wistar, oral 100 mg/kg, single rat): 0.072
- concentration at 8 h ([6]; male, Wistar, rat, eye ball, po, 10 mg/kg, oral 10 mg/kg, single rat, read-out: Eye Ball Concentration): < 0.1 nM
- concentration at 8 h ([6]; male, Wistar, rat, eye ball, po, 100 mg/kg, oral 100 mg/kg, single rat, read-out: Eye Ball Concentration): 0.33 nM
- bioavailability ([6]; male, Wistar, rat, plasma, 10 mg/kg): < 1%
- bioavailability ([6]; male, Wistar, rat, plasma, 100 mg/kg): < 1%
- concentration at 0.25 h ([6]; male, Wistar, rat, plasma, po, 10 mg/kg, oral 10 mg/kg, 0.25 h, single rat): 2.42 nM
- concentration at 0.5 h ([6]; male, Wistar, rat, plasma, po, 10 mg/kg, oral 10 mg/kg, 0.5 h, single rat): 1.51 nM
- concentration at 1 h ([6]; male, Wistar, rat, plasma, po, 10 mg/kg, oral 10 mg/kg, 1 h, single rat): 2.11 nM
- concentration at 2 h ([6]; male, Wistar, rat, plasma, po, 10 mg/kg, oral 10 mg/kg, 2 h, single rat): 1.76 nM
- concentration at 4 h ([6]; male, Wistar, rat, plasma, po, 10 mg/kg, oral 10 mg/kg, 4 h, single rat): 0.8 nM
- concentration at 8 h ([6]; male, Wistar, rat, plasma, po, 10 mg/kg, oral 10 mg/kg, single rat, * value deemed erroneous by contamination, read-out: Plasma Concentration): 1.69 nM
- concentration at 0.25 h ([6]; male, Wistar, rat, plasma, po, 100 mg/kg, oral 100 mg/kg, 0.25 h, single rat): 11.7 nM
- concentration at 0.5 h ([6]; male, Wistar, rat, plasma, po, 100 mg/kg, oral 100 mg/kg, 0.5 h, single rat): 14.6 nM
- concentration at 1 h ([6]; male, Wistar, rat, plasma, po, 100 mg/kg, oral 100 mg/kg, 1 h, single rat): 17 nM
- concentration at 2 h ([6]; male, Wistar, rat, plasma, po, 100 mg/kg, oral 100 mg/kg, 2 h, single rat): 17.2 nM
- concentration at 8 h ([6]; male, Wistar, rat, plasma, po, 100 mg/kg, oral 100 mg/kg, single rat, * value deemed erroneous by contamination, read-out: Plasma Concentration): 4.57 nM
- Plasma Concentration ([6]; oral 10 mg/kg, 0.25 h, single rat, 10 mg/kg): 1.71 nM
- Plasma Concentration ([6]; oral 10 mg/kg, 0.5 h, single rat, 10 mg/kg): 1.90 nM
- Plasma Concentration ([6]; oral 10 mg/kg, 1 h, single rat, 10 mg/kg): 2.26 nM
- Plasma Concentration ([6]; oral 10 mg/kg, 2 h, single rat, 10 mg/kg): 1.51 nM
- Plasma Concentration ([6]; oral 10 mg/kg, 4 h, single rat, 10 mg/kg): 1.20 nM
- Plasma Concentration ([6]; oral 100 mg/kg, 0.25 h, single rat, 100 mg/kg): 6.17 nM
- Plasma Concentration ([6]; oral 100 mg/kg, 0.5 h, single rat, 100 mg/kg): 11.15 nM
- Plasma Concentration ([6]; oral 100 mg/kg, 1 h, single rat, 100 mg/kg): 17.43 nM
- Plasma Concentration ([6]; oral 100 mg/kg, 2 h, single rat, 100 mg/kg): 11.51 nM
- Plasma Concentration ([6]; oral 100 mg/kg, 4 h, single rat, 100 mg/kg): 11.52 nM and 5.75 nM
- concentration at 8 h ([6]; oral 100 mg/kg, single rat, 100 mg/kg, read-out: Eye Ball Concentration): 0.40 nM
